Non-standard residues stand in square brackets, D forms with d. Residues, ends and D or L forms follow the SMILES beside them. dPhe(4-Cl) = N[C@H](Cc1ccc(Cl)cc1)C(=O)O; d2Nal = N[C@H](Cc1ccc2ccccc2c1)C(=O)O; dCit = NC(=O)NCCC[C@@H](N)C(=O)O; d3Pal = N[C@H](Cc1cccnc1)C(=O)O
How the values were obtained:
[1] = system: patients with confirmed endometriosis; assay: Weekly s.c. LHRH-antagonist treatment for 8 weeks in patients with endometriosis: clinical outcome and tolerability (2nd look laparascopy, histological biopsies); format: in vivo, human (patients); conditions: for hot flushes or other (estradiol) withdrawal symptoms / proliferation of the endometrium at the end of treatment (histological biopsies): patients with endometriosis, 3 mg weekly for 8 weeks
Procedure: (§1) The weekly administration of an adequate dose of an LHRH antagonist, e.g. 3 mg Cetrotide® s.c./ per week over a period of eight weeks leads to a controlled suppression of estrogen secretion so that serum concentrations between about 35 pg/ml and about 80 pg/ml, preferably between about 45–75 pg/ml, more preferably between about 50–75 pg/ml are obtained. […] Also the development of osteoporosis can be avoided.

[2] = system: estradiol secretion; assay: Weekly s.c. LHRH-antagonist treatment for 8 weeks in patients with endometriosis: estradiol serum levels; format: in vivo, human (patients); conditions: weekly dose of 1 mg resp. 3 mg once per week
Procedure: 3 mg once per week. The estradiol serum levels are between about 35–80 pg/ml, preferably between about 45–75 pg/ml, more preferably between about 50–75 pg/ml.
as §1

[3] = nine patients with confirmed endometriosis, 3 mg s.c. weekly for 8 weeks

Compound	hot flushes or other (estradiol) withdrawal symptoms [1]	proliferation of the endometrium at the end of treatment (histological biopsies) [1]	estradiol serum levels (FIG. 2) [2]	ovarian cyst formation [1, 3]	progress of the disease, confirmed by 2nd look laparascopy [1, 3]
CC(=O)N[C@H](Cc1ccc2ccccc2c1)C(=O)N[C@H](Cc1ccc(Cl)cc1)C(=O)N[C@H](Cc1cccnc1)C(=O)N[C@@H](CO)C(=O)N[C@@H](Cc1ccc(O)cc1)C(=O)N[C@H](CCCNC(N)=O)C(=O)N[C@@H](CC(C)C)C(=O)N[C@@H](CCCNC(=N)N)C(=O)N1CCC[C@H]1C(=O)N[C@H](C)C(N)=O [Cetrorelix] (Ac-[d2Nal][dPhe(4-Cl)][d3Pal]SY[dCit]LRP[dA]-NH2)	without any signs of estradiol withdrawal symptoms	without proliferation of the endometrium	35 to 80 pg/mL	–	–
CC(=O)N[C@H](Cc1ccc2ccccc2c1)C(=O)N[C@H](Cc1ccc(Cl)cc1)C(=O)N[C@H](Cc1cccnc1)C(=O)N[C@@H](CO)C(=O)N[C@@H](Cc1ccc(O)cc1)C(=O)N[C@H](CCCNC(N)=O)C(=O)N[C@@H](CC(C)C)C(=O)N[C@@H](CCCNC(=N)N)C(=O)N1CCC[C@H]1C(=O)N[C@H](C)C(N)=O [Cetrorelix acetate] (Ac-[d2Nal][dPhe(4-Cl)][d3Pal]SY[dCit]LRP[dA]-NH2)	avoiding any hot flushes or other withdrawal symptoms	no proliferation of the endometrium	–	No ovarian cyst formation occurred	without any progress of the disease

Reference: patent publication US7005418B1, “Method for the therapeutic management of extrauterine proliferation of endometrial tissue, chronic pelvic pain and fallopian tube obstruction” (Zentaris GmbH, priority 1999, dated 2006)
